Experimental data as given in patent US20250195521A1 (Revolution Medicines, Inc., priority 2020, published 2025).
pEC50, pIC50: −log10 of the molar value.

What was measured:
KRAS Q61H = KRAS Q61H (Homo sapiens (Human), UniProt P01116+P62937, Q61H); assay: Ras-Raf disruption/FRET/MOA assay (BRAF RBD, Cyclophilin A); assay type: biochemical
Outline: (§1)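 His6-K-Ras-GMPPNP (12.5 nM), GST-BRAF RBD (50 nM) and tagless Cyclophilin A (25 μM) were combined in 25 mM HEPES pH 7.3 with 100 mM NaCl, 5 mM MgCl2, 0.1% BSA and 0.002% Tween20, with compound as a 10-point 3-fold series from 30 μM final, then incubated 3 h at 25° C.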

NRAS WT = NRAS WT (Homo sapiens (Human), UniProt P01111+P62937); assay: as above; assay type: biochemical
Outline: (§2)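 TR-FRET readout: anti-His Eu-W1024 (10 nM) and anti-GST allophycocyanin (50 nM) added after 3 h, 25° C compound incubation, then 1.5 h more. Decrease in FRET ratio versus DMSO wells marks Ras:RAF disruption; IC50 reported.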

NRAS Q61R = NRAS Q61R (Homo sapiens (Human), UniProt P01111+P62937, Q61R); assay: as above; assay type: biochemical
Outline: as §2

[1] = test system: K-Ras G12C (NCI-H358 cells); assay: Potency assay: pERK in NCI-H358 cells; assay type: cell-based, human; settings: Homo sapiens; NCI-H358 cells, 4 hours; read-out: pERK EC50 (H358 KRAS G12C)
Outline: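 Cells plated the day before were exposed for 4 h at 37° C, 5% CO2 to a 10-point, 3-fold DMSO dilution series (10 mM top stock), in duplicate. Phospho-ERK was read by AlphaLISA SureFire Ultra or by In-Cell Western with DRAQ5 DNA stain, and IC50 came from a 4-parameter sigmoidal fit.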

KRAS G12C = KRAS G12C (Homo sapiens (Human), UniProt P01116+P62937, G12C); assay: Ras-Raf disruption/FRET/MOA assay (BRAF RBD, Cyclophilin A); assay type: biochemical; settings: read-out: KRAS G12C FRET IC50
Outline: as §1

KRAS G13C = KRAS G13C (Homo sapiens (Human), UniProt P01116+P62937, G13C); assay: as above; assay type: biochemical; settings: read-out: KRAS G13C FRET IC50
Outline: as §1

KRAS G12V = KRAS G12V (Homo sapiens (Human), UniProt P01116+P62937, G12V); assay: as above; assay type: biochemical; settings: read-out: KRAS G12V FRET IC50
Outline: as §1

NRAS G12C = NRAS G12C (Homo sapiens (Human), UniProt P01111+P62937, G12C); assay: as above; assay type: biochemical; settings: read-out: NRAS G12C FRET data IC50
Outline: as §2

KRAS G13D = KRAS G13D (Homo sapiens (Human), UniProt P01116+P62937, G13D); assay: as above; assay type: biochemical; settings: read-out: KRAS G13D FRET data IC50
Outline: as §1

KRAS G12S = KRAS G12S (Homo sapiens (Human), UniProt P01116+P62937, G12S); assay: as above; assay type: biochemical; settings: read-out: KRAS G12S FRET IC50
Outline: as §1

KRAS G12D = KRAS G12D (Homo sapiens (Human), UniProt P01116+P62937, G12D); assay: as above; assay type: biochemical; settings: read-out: KRAS G12D FRET IC50
Outline: as §1

KRAS WT = KRAS WT (Homo sapiens (Human), UniProt P01116+P62937); assay: as above; assay type: biochemical; settings: read-out: KRAS WT FRET data IC50
Outline: as §1

[2] = test system: Capan-1 cells (K-Ras G12V); assay: CellTiter-Glo cell viability, Capan-1; assay type: cell-based, human; settings: Homo sapiens, CAPAN-1, 120 h, K-Ras G12V, 5-day treatment; read-out: Capan-1 Cell Viability IC50
Outline: (§3)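 Five-day treatment of K-Ras mutant cells with directly dispensed compound; ATP-based luminescence endpoint. Percent of DMSO signal fit to four-parameter logistic curve.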

[3] = test system: NCI-H358 cells (K-Ras G12C); assay: CellTiter-Glo cell viability, NCI-H358; assay type: cell-based, human; settings: Homo sapiens, NCI-H358, 120 h, K-Ras G12C, 5-day treatment; read-out: H358 Cell Viability IC50
Outline: as §3

Chain of NRAS Q61R (P01111 whole entry Q61R): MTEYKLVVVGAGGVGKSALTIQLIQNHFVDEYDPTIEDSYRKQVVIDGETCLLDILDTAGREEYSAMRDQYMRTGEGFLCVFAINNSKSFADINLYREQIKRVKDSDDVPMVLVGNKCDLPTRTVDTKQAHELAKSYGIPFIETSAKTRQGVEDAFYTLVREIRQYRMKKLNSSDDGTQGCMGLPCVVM
Chain of NRAS Q61R (P62937 whole entry): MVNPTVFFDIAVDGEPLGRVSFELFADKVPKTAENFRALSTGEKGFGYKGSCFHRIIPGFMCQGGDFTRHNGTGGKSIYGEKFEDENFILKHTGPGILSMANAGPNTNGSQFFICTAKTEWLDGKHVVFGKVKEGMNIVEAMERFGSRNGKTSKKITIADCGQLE
Chain of KRAS G12S (P01116 other isoform, or with tags, fused parts or gaps G12S): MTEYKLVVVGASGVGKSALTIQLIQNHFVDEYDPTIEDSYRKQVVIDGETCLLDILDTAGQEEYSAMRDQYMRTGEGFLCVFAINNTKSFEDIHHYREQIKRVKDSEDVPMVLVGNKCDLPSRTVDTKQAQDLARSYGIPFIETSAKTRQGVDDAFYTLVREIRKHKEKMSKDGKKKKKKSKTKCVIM
Chain of KRAS G12S (P62937 whole entry): as the sequence (P62937 whole entry) above
Chain of NRAS WT (P01111 whole entry): as the sequence (P01111 whole entry Q61R) above, with R61Q counted along it
Chain of NRAS WT (P62937 whole entry): as the sequence (P62937 whole entry) above
Chain of NRAS G12C (P01111 whole entry G12C): as the sequence (P01111 whole entry Q61R) above, with G12C, R61Q counted along it
Chain of NRAS G12C (P62937 whole entry): as the sequence (P62937 whole entry) above
Chain of KRAS WT (P01116 other isoform, or with tags, fused parts or gaps): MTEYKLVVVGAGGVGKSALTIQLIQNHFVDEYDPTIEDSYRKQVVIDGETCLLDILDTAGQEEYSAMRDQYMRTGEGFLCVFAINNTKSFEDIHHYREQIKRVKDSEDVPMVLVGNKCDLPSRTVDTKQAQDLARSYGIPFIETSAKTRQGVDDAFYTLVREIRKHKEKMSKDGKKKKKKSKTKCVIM
Chain of KRAS WT (P62937 whole entry): as the sequence (P62937 whole entry) above
Chain of KRAS G12D (P01116 other isoform, or with tags, fused parts or gaps G12D): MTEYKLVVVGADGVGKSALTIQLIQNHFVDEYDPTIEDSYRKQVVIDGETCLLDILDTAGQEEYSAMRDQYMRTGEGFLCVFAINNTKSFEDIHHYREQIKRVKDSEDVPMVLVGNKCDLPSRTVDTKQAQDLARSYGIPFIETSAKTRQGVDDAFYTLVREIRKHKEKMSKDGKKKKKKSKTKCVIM
Chain of KRAS G12D (P62937 whole entry): as the sequence (P62937 whole entry) above
Chain of KRAS G13C (P01116 other isoform, or with tags, fused parts or gaps G13C): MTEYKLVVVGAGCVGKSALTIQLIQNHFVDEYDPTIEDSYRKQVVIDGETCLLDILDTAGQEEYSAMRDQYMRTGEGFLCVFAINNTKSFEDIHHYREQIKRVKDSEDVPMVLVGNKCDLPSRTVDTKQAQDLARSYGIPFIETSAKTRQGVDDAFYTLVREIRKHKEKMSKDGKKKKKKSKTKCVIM
Chain of KRAS G13C (P62937 whole entry): as the sequence (P62937 whole entry) above
Chain of KRAS G13D (P01116 other isoform, or with tags, fused parts or gaps G13D): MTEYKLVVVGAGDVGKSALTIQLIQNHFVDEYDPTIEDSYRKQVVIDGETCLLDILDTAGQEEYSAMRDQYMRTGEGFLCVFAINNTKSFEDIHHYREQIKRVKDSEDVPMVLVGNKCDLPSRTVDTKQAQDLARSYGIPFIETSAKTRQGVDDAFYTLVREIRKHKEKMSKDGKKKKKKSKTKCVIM
Chain of KRAS G13D (P62937 whole entry): as the sequence (P62937 whole entry) above
Chain of KRAS Q61H (P01116 other isoform, or with tags, fused parts or gaps Q61H): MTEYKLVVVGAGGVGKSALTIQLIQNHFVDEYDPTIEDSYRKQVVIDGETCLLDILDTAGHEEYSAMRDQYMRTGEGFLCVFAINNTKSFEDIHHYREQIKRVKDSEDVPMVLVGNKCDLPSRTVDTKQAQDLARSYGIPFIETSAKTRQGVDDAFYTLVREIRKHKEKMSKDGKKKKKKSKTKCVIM
Chain of KRAS Q61H (P62937 whole entry): as the sequence (P62937 whole entry) above
Chain of KRAS G12C (P01116-2 other isoform, or with tags, fused parts or gaps G12C): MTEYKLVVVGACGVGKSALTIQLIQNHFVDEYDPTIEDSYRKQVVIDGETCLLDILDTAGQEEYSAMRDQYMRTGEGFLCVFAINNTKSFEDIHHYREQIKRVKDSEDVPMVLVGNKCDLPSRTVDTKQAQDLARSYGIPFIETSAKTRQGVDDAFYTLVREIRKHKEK
Chain of KRAS G12C (P62937 whole entry): as the sequence (P62937 whole entry) above
Chain of KRAS G12V (P01116 other isoform, or with tags, fused parts or gaps G12V): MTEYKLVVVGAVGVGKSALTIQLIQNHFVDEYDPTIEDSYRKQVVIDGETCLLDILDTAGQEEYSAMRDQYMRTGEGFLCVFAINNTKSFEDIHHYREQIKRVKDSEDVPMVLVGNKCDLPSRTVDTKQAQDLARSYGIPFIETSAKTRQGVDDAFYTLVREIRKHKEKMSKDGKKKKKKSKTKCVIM
Chain of KRAS G12V (P62937 whole entry): as the sequence (P62937 whole entry) above

CCn1c(-c2cccnc2[C@H](C)OC)c2c3cc(ccc31)-c1csc(n1)C[C@H](NC(=O)[C@H](C(C)C)N(C)C(=O)N1CC(C#N)(N(C)C)C1)C(=O)N1CCC[C@H](N1)C(=O)OCC(C)(C)C2 [Compound A452]
pIC50 (KRAS Q61H): 6.00 to 7.00
pIC50 (NRAS WT): 6.00 to 7.00
pIC50 (NRAS Q61R): 6.00 to 7.00
pEC50 [1]: > 5.30

CCn1c(-c2cccnc2[C@H](C)OC)c2c3cc(ccc31)-c1csc(n1)C[C@H](NC(=O)[C@H](C(C)C)N(C)C(=O)N1CC([C@@H](CO)OC)C1)C(=O)N1CCC[C@H](N1)C(=O)OCC(C)(C)C2 [Compound A514]
pIC50 (KRAS G12C): 7.00 to 8.00
pIC50 (KRAS G13C): 6.00 to 7.00
pIC50 (KRAS G12V): 6.00 to 7.00
pIC50 (KRAS Q61H): 7.00 to 8.00
pIC50 (NRAS G12C): 7.00 to 8.00
pIC50 (KRAS G13D): 6.00 to 7.00
pIC50 (NRAS WT): 6.00 to 7.00
pIC50 (KRAS G12S): 6.00 to 7.00
pIC50 (NRAS Q61R): 6.00 to 7.00
pIC50 (KRAS G12D): 6.00 to 7.00
pIC50 (KRAS WT): 6.00 to 7.00
pIC50 [2]: 7.00 to 8.00

CCn1c(-c2cccnc2[C@H](C)OC)c2c3cc(ccc31)-c1csc(n1)C[C@H](NC(=O)[C@H](C(C)C)N(C)C(=O)N1CC([C@H](CO)OC)C1)C(=O)N1CCC[C@H](N1)C(=O)OCC(C)(C)C2 [Compound A515]
pIC50 (KRAS G12C): 7.00 to 8.00
pIC50 (KRAS G13C): 6.00 to 7.00
pIC50 (KRAS G12V): 6.00 to 7.00
pIC50 (KRAS Q61H): 7.00 to 8.00
pIC50 (NRAS G12C): 7.00 to 8.00
pIC50 (KRAS G13D): 6.00 to 7.00
pIC50 (NRAS WT): 6.00 to 7.00
pIC50 (KRAS G12S): 6.00 to 7.00
pIC50 (NRAS Q61R): 6.00 to 7.00
pIC50 (KRAS G12D): 6.00 to 7.00
pIC50 (KRAS WT): 6.00 to 7.00
pEC50 [1]: > 5.30
pIC50 [2]: 7.00 to 8.00

CCn1c(-c2cccnc2[C@H](C)OC)c2c3cc(ccc31)-c1csc(n1)C[C@H](NC(=O)[C@H](C(C)C)N(C)C(=O)N1CCN3C(=O)CN(C)C[C@@H]3C1)C(=O)N1CCC[C@H](N1)C(=O)OCC(C)(C)C2 [Compound A536]
pIC50 (KRAS G12C): 7.00 to 8.00
pIC50 (KRAS G13C): 6.00 to 7.00
pIC50 (KRAS G12V): 6.00 to 7.00
pIC50 (KRAS Q61H): 7.00 to 8.00
pIC50 (NRAS G12C): 7.00 to 8.00
pIC50 (KRAS G13D): 6.00 to 7.00
pIC50 (NRAS WT): 7.00 to 8.00
pIC50 (KRAS G12S): 6.00 to 7.00
pIC50 (KRAS G12D): 6.00 to 7.00
pIC50 (KRAS WT): 7.00 to 8.00
pEC50 [1]: > 5.30
pIC50 [3]: > 8.00
pIC50 [2]: 7.00 to 8.00

CCn1c(-c2cccnc2[C@H](C)OC)c2c3cc(ccc31)-c1csc(n1)C[C@H](NC(=O)[C@H](C(C)C)N(C)C(=O)N1CC(C(=O)N3CCOCC3)C1)C(=O)N1CCC[C@H](N1)C(=O)OCC(C)(C)C2 [Compound A543]
pIC50 (KRAS G12C): 7.00 to 8.00
pIC50 (KRAS G13C): 6.00 to 7.00
pIC50 (KRAS G12V): 6.00 to 7.00
pIC50 (KRAS Q61H): 7.00 to 8.00
pIC50 (NRAS G12C): 7.00 to 8.00
pIC50 (KRAS G13D): 6.00 to 7.00
pIC50 (NRAS WT): 6.00 to 7.00
pIC50 (KRAS G12S): 6.00 to 7.00
pIC50 (NRAS Q61R): 6.00 to 7.00
pIC50 (KRAS G12D): 6.00 to 7.00
pIC50 (KRAS WT): 6.00 to 7.00
pIC50 [2]: 7.00 to 8.00

CCn1c(-c2cccnc2[C@H](C)OC)c2c3cc(ccc31)-c1csc(n1)C[C@H](NC(=O)[C@H](C(C)C)N(C)C(=O)N1CCC13COC3)C(=O)N1CCC[C@H](N1)C(=O)OCC(C)(C)C2 [Compound A560]
pIC50 (KRAS G12C): 7.00 to 8.00
pIC50 (KRAS G13C): 6.00 to 7.00
pIC50 (KRAS G12V): 6.00 to 7.00
pIC50 (KRAS Q61H): 7.00 to 8.00
pIC50 (NRAS G12C): 7.00 to 8.00
pIC50 (KRAS G13D): 6.00 to 7.00
pIC50 (NRAS WT): 7.00 to 8.00
pIC50 (KRAS G12S): 6.00 to 7.00
pIC50 (KRAS G12D): 6.00 to 7.00
pIC50 (KRAS WT): 7.00 to 8.00
pEC50 [1]: > 5.30
pIC50 [3]: 7.00 to 8.00
pIC50 [2]: 6.00 to 7.00
